# Assay results published in US8853276B2, “Guanidine derivatives in cinnamic series” (Produits Chimiques Auxiliaires et de Synthese, priority 2010, dated 2014).
# Test system: fibrillin-1
# Experiment: Anti-glycation study on skin explants: fibrillin-1 immunolabeling with image analysis
# Assay type: cell-based, human
# Details: for Fibrillin-1 (% of surface area under the dermo-epidermal junction), Mean: topical 2 mg per explant on D0, D3, D5, D7, aminoguanidine at 0.15%, compound 29 at 1%
# Procedure: The anti-aging properties of a derivative according to the invention were evaluated by performing a comparative study of the anti-glycation activity of several compounds.
# From an arm of a person, 21 explants (about 10 mm in diameter) were prepared and placed under survival conditions in BEM specific medium (BIO-EC's Explants Medium).
# The explants were divided into seven batches of three explants:
# Methylglyoxal was incorporated into the survival medium on D3, D5 and D7.
# Compound 29 and the reference, aminoguanidine, were applied topically at a rate of 2 mg per explant on D0, D3, D5 and D7.
# The controls (batches T0 and T) received no treatment.
# On D0, the three explants of batch T0 were sampled and divided into two. One half was fixed with buffered formaldehyde and the other half was frozen at −80° C. On D9, three explants from each batch were sampled and treated in the same manner.
# After 24 hours of fixing in the buffered formaldehyde, the samples were dehydrated and impregnated with paraffin using a Leica 1020 dehydration robot. They were embedded using a Leica EG 1160 coating station. 5 μm slices were produced using a Minot Leica RM 2125 microtome and bonded to Superfrost® histological glass slides.
# The nuclei were stained with propidium iodide. The labeling was quantified by image analysis measurements with the Q-WIN Leica system.
# [1] = D9 with methylglyoxal (in survival medium D3, D5, D7)
# [2] = D9 with methylglyoxal, relative to the control batch T without methylglyoxal
SMILES,"Fibrillin-1 (% of surface area under the dermo-epidermal junction), Mean [1] [%]",increase in the percentage of surface area occupied by fibrillin-1 under the dermo-epidermal junction [2] [%],"Fibrillin-1 (% of surface area under the dermo-epidermal junction), Mean (D9 without methylglyoxal) [%]","reduction of the methylglyoxal-induced decrease in the expression of fibrillin-1 (D9, treatment in the presence of methylglyoxal) [%]","expression of fibrillin-1 (labeling, observation) (D9 in the presence of methylglyoxal, compared with control batch T MG)",decrease in the percentage of surface area occupied by fibrillin-1 under the dermo-epidermal junction [2] [%]
"COc1cc(/C=C/C(=O)NNC(=N)N)ccc1O [Compound 29, imino{2-[(2E)-3-(4-hydroxy-3-methoxyphenyl)prop-2-enoyl]hydrazino}methanaminium nitrate]",27.7,17,21.53,,,
"N=C(N)NN [aminoguanidine, Aminoguanidine]",21.0,,28.3,49,very sharp and greater than that observed on the control batch T MG with methylglyoxal,12
"CC(=O)C=O [methylglyoxal, Methylglyoxal]",,,,,,23
